Test results: patent US7271164B2, “Cyclohepta[b][1,4]diazepino[6,7,1,-hi]indoles and derivatives” (Wyeth, priority 2000, dated 2007)
Where a name gives a salt, the structure may show the parent alone.

What was measured:
[1] = target: T1, human 5-hydroxytryptamine2C (h5HT2C) receptor (Homo sapiens, UniProt P28335); experiment: 5HT2C Receptor Binding Test Procedure ([125I] DOI displacement, CHO cell membranes)
T1 construct: expressed in transfected cells; host or cells: CHO (Chinese Hamster Ovary) cells; membrane preparation
T1 sequence (P28335 33-458): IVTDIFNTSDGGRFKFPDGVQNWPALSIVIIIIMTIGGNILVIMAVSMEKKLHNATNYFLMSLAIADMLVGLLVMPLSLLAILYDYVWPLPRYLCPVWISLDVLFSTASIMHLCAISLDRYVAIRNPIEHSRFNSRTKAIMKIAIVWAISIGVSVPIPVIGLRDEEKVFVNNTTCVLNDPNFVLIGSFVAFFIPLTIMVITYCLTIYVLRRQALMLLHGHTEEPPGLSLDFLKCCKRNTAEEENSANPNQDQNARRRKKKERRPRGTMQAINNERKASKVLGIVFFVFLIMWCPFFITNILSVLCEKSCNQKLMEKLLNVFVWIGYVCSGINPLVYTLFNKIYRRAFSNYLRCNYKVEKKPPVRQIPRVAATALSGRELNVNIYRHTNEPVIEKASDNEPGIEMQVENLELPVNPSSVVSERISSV

human 5-HT2C receptor = target: T2, human 5-HT2C receptor (Homo sapiens, UniProt P28335); experiment: Stimulation of [3H] Inositol Monophosphate Production by 5-HT2C Agonists (transfected CHO cells); assay type: cell-based
T2 construct: expressed in transfected cells; host or cells: CHO cells
T2 sequence (P28335 33-458): T1 sequence (P28335 33-458)
Protocol: One (1) ml of maintenance medium containing 1 μCi/ml myo-[^3H] inositol was added to each well. After 48 hours labeling, the cells were washed once with 0.5 ml DMEM containing 25 mM HEPES and 10 mM LiCl, then preincubated with the medium for 30 min (antagonists were included in this period if tested). At the end of the preincubation, the medium was removed, the cells were then incubated with test compounds (in presence of antagonists if needed) for 30 min. The reaction was terminated by removal of the incubation solution and addition of 0.5 ml ice-cold 5% PCA, followed by 15 to 30 min incubation on ice. 200 μl of 0.5 M Tes/1.5 M K2CO3 was added to each well to neutralize to pH 7, and plates were left on ice for another 15 to 30 min to precipitate all salts. The liquid and solid phases were separated by centrifugation.
A portion (350 μl) of the upper aqueous phase was applied to Dowex AG-1X8 (formate form, 100-200 mesh) columns. The columns were then washed stepwise with 10 ml of water and 10 ml of 25 mM ammonium formate to remove free myo-[^3H]inositol and deacylated phosphoinositol, respectively. Finally 10 ml of 0.2 M ammonium formate solution was applied to the columns to elute [^3H] inositol monophosphate ([^3H] IP1) directly into scintillation vials. Of this eluate, 1 ml was used to determine radioactivity by scintillation counting. […]

c1cc2c3c(c1)c1c(n3CCNC2)CCCCC1 (as salt: hydrochloride) [Example 1, 1,2,3,4,9,10,11,12-Octahydro-8H-cyclohepta[b][1,4]diazepino[6,7,1-hi]indole]
melting point: 303 to 306 °C

COc1cc(CC(C)N)c(OC)cc1I (stereo not drawn) [[^125I] DOI]
Kd ([1]; read-out: dissociation constant, KD of [125I] DOI at the human serotonin 5HT2C receptor, saturation binding with increasing concentrations of [125I] DOI): 0.4 nM

CSc1ccc2c(c1)C(N1CCN(C)CC1)Cc1ccccc1S2 (stereo not drawn) [Methiothepin]
Ki ([1]; reference compounds, [125I] DOI binding, h5HT2C in CHO membranes, read-out: Ki value and 95% confidence interval): 4.6 nM

c1cc2c3c(c1)c1c(n3CCNC2)CCCCC1 [Example 1, 1,2,3,4,9,10,11,12-Octahydro-8H-cyclohepta[b][1,4]diazepino[6,7,1-hi]indole]
Emax (human 5-HT2C receptor; CHO, read-out: 5HT2C % Emax (5HT, 100%)): 73%
EC50 (human 5-HT2C receptor; read-out: Stimulation of IP3 (EC50)): 500 nM

c1cc2c3c(c1)C1CCCCCC1N3CCNC2 (stereo not drawn) (as salt: hydrochloride) [Example 2, 1,2,3,4,8,9,10,11,12,12a-Decahydro-7bH-cyclohepta[b][1,4]diazepino[6,7,1-hi]indole]
melting point: 258 to 263 °C
